Reference: patent US8263598B2, “Substituted sulfonamide compounds” (Gruenenthal GmbH, priority 2008, dated 2012)

How the values were obtained:
[1] = target: T1, human B1R receptor (hB1R) (Homo sapiens, UniProt P46663); assay: FLIPR Ca2+ assay on human bradykinin 1 receptor (CHO K1 hB1R cells); assay type: cell-based; conditions: test substance 10 μM; CHO K1 cells with human B1R gene; agonist Lys-Des-Arg9-bradykinin 0.5 nM; compared to maximum achievable inhibition
T1 construct: host or cells: CHO K1 cells
T1 sequence (P46663 1-353): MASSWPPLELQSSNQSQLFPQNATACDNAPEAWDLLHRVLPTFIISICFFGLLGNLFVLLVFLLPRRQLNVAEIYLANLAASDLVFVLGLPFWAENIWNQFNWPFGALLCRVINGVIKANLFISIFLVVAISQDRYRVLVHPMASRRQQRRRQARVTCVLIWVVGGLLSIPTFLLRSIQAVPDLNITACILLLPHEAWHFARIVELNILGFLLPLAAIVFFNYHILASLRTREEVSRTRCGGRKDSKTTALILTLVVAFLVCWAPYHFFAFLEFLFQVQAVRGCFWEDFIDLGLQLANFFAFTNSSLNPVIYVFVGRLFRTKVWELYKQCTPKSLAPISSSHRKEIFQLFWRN
In short: (§1)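 CHO K1 cells stably expressing human or rat B1R were loaded with Fluo-4 and tested at 10 μM compound. Ca²⁺ signal was read in FLIPR as % activation versus agonist. After 10 min, agonist was added (hB1R: Lys-Des-Arg9-bradykinin 0.5 nM; rB1R: Des-Arg9-bradykinin 100 nM), and % inhibition was taken relative to maximum achievable inhibition.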

[2] = target: T2, B1R receptor of rats (rB1R) (Rattus norvegicus, UniProt P97583); assay: FLIPR Ca2+ assay on rat bradykinin 1 receptor (CHO K1 rB1R cells); assay type: cell-based; conditions: test substance 10 μM; CHO K1 cells with B1R gene of rats; agonist Des-Arg9-bradykinin 100 nM; compared to maximum achievable inhibition
T2 construct: host or cells: CHO K1 cells
T2 sequence (P97583 1-337): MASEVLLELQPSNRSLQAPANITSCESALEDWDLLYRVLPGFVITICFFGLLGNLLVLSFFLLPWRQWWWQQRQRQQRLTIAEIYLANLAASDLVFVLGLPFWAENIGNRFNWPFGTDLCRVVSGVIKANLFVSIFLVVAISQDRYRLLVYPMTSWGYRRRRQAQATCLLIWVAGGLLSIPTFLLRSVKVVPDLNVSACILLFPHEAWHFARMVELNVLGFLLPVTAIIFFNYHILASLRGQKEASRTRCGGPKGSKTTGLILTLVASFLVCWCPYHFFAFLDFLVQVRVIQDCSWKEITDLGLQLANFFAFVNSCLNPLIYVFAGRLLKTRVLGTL
In short: as §1

SMILES | inhibition at 10 µM [1] [%] | inhibition at 10 µM [2] [%]
CCCCC1c2ccc(CN(C)C)n2CCN1C(=O)COCCN(C)S(=O)(=O)c1cc(C)c(OC)c(C)c1C (stereo not shown) [Example 111, N-(2-(2-(1-butyl-6-((dimethylamino)methyl)-3,4-dihydropyrrolo[1,2-a]pyrazin-2(1H)-yl)-2-oxoethoxy)ethyl)-4-methoxy-N,2,3,5-tetramethylbenzene-sulfonamide] | 100 | 100
CCC1c2ccc(CN(C)C)n2CCN1C(=O)COCCN(C)S(=O)(=O)c1cc(C)c(OC)c(C)c1C (stereo not shown) [Example 113, N-(2-(2-(6-((dimethylamino)methyl)-1-ethyl-3,4-dihydropyrrolo[1,2-a]pyrazin-2(1H)-yl)-2-oxoethoxy)ethyl)-4-methoxy-N,2,3,5-tetramethylbenzenesulfonamide] | 103 | 93
CCC1c2cccn2CCN1C(=O)COCCN(C)S(=O)(=O)c1cc(C)c(OC)c(C)c1C (stereo not shown) [Example 114, N-(2-(2-(1-ethyl-3,4-dihydropyrrolo[1,2-a]pyrazin-2(1H)-yl)-2-oxoethoxy)ethyl)-4-methoxy-N,2,3,5-tetramethylbenzenesulfonamide] | 80 | 42
CCCC1c2cccn2CCN1C(=O)COCCN(C)S(=O)(=O)c1cc(C)c(OC)c(C)c1C (stereo not shown) [Example 115, 4-methoxy-N,2,3,5-tetramethyl-N-(2-(2-oxo-2-(1-propyl-3,4-dihydropyrrolo[1,2-a]pyrazin-2(1H)-yl)ethoxy)ethyl)benzenesulfonamide] | 91 | 97
COc1cc(C)c(S(=O)(=O)N(CCOCC(=O)N2CCn3c(CN(C)C)ccc3C2Cc2ccccc2)Cc2ccccc2)c(C)c1C (stereo not shown) [Example 118, N-benzyl-N-(2-(2-(1-benzyl-6-((dimethylamino)methyl)-3,4-dihydropyrrolo[1,2-a]pyrazin-2(1H)-yl)-2-oxoethoxy)ethyl)-4-methoxy-2,3,6-trimethylbenzene-sulfonamide] | 96 | 96
COc1cc(C)c(S(=O)(=O)N(CCOCC(=O)N2CCn3c(CN(C)C)ccc3C2CCc2ccccc2)Cc2ccccc2)c(C)c1C (stereo not shown) [Example 119, N-benzyl-N-(2-(2-(6-((dimethylamino)methyl)-1-phenethyl-3,4-dihydropyrrolo-[1,2-a]pyrazin-2(1H)-yl)-2-oxoethoxy)ethyl)-4-methoxy-2,3,6-trimethylbenzene-sulfonamide] | 52 | 54
CCCCC1c2ccc(CN(C)C)n2CCN1C(=O)COCCN(Cc1ccccc1)S(=O)(=O)c1c(C)cc(OC)c(C)c1C (stereo not shown) [Example 120, N-benzyl-N-(2-(2-(1-butyl-6-((dimethylamino)methyl)-3,4-dihydropyrrolo[1,2-a]pyrazin-2(1H)-yl)-2-oxoethoxy)-ethyl)-4-methoxy-2,3,6-trimethyl-benzenesulfonamide] | 84 | 92
COc1cc(C)c(S(=O)(=O)N(CCOCC(=O)N2CCn3c(CN(C)C)ccc3C2c2cccs2)Cc2ccccc2)c(C)c1C (stereo not shown) [Example 121, N-benzyl-N-(2-(2-(6-((dimethylamino)methyl)-1-(thiophen-2-yl)-3,4-dihydropyrrolo[1,2-a]pyrazin-2(1H)-yl)-2-oxoethoxy)ethyl)-4-methoxy-2,3,6-trimethylbenzene-sulfonamide] | 101 | 102
CCCC1c2cccn2CCN1C(=O)COCCN(Cc1ccccc1)S(=O)(=O)c1c(C)cc(OC)c(C)c1C (stereo not shown) [Example 123, N-benzyl-4-methoxy-2,3,6-trimethyl-N-(2-(2-oxo-2-(1-propyl-3,4-dihydropyrrolo[1,2-a]pyrazin-2(1H)-yl)ethoxy)ethyl)benzenesulfonamide] | 41 | 86
COc1cc(C)c(S(=O)(=O)N(CCOCC(=O)N2CCn3cccc3C2C(C)C)Cc2ccccc2)c(C)c1C (stereo not shown) [Example 124, N-benzyl-N-(2-(2-(1-isopropyl-3,4-dihydropyrrolo[1,2-a]pyrazin-2(1H)-yl)-2-oxoethoxy)ethyl)-4-methoxy-2,3,6-trimethylbenzenesulfonamide] | 58 | 96
COc1cc(C)c(S(=O)(=O)N(CCOCC(=O)N2CCn3cccc3C2CCc2ccccc2)Cc2ccccc2)c(C)c1 (stereo not shown) [Example 125, N-benzyl-4-methoxy-2,6-dimethyl-N-(2-(2-oxo-2-(1-phenethyl-3,4-dihydropyrrolo[1,2-a]pyrazin-2(1H)-yl)ethoxy)ethyl)benzenesulfonamide] | 25 | 78
COc1cc(C)c(S(=O)(=O)N(CCOCC(=O)N2CCn3c(CN(C)C)ccc3C2c2ccccc2)Cc2ccccc2)c(C)c1 (stereo not shown) [Example 126, N-benzyl-N-(2-(2-(6-((dimethylamino)methyl)-1-phenyl-3,4-dihydropyrrolo[1,2-a]pyrazin-2(1H)-yl)-2-oxoethoxy)ethyl)-4-methoxy-2,6-dimethylbenzenesulfonamide] | 101 | 102
COc1cc(C)c(S(=O)(=O)N(CCOCC(=O)N2CCn3c(CN4CCCC4)ccc3C2c2ccccc2)Cc2ccccc2)c(C)c1 (stereo not shown) [Example 127, N-benzyl-4-methoxy-2,6-dimethyl-N-(2-(2-oxo-2-(1-phenyl-6-(pyrrolidin-1-ylmethyl)-3,4-dihydropyrrolo[1,2-a]pyrazin-2(1H)-yl)ethoxy)ethyl)benzene-sulfonamide] | 99 | 102
COc1cc(C)c(S(=O)(=O)N(CCOCC(=O)N2CCn3c(CN4CCCCC4)ccc3C2c2ccccc2)Cc2ccccc2)c(C)c1 (stereo not shown) [Example 128, N-benzyl-4-methoxy-2,6-dimethyl-N-(2-(2-oxo-2-(1-phenyl-6-(piperidin-1-ylmethyl)-3,4-dihydropyrrolo[1,2-a]pyrazin-2(1H)-yl)ethoxy)ethyl)benzene-sulfonamide] | 101 | 103

Second part, the compound after the results:

inhibition at 10 µM [1] [%] | inhibition at 10 µM [2] [%] | SMILES
102 | 102 | COc1c(C)cc(S(=O)(=O)N(C)CCOCC(=O)N2CCn3c(CN4CCOCC4)ccc3C2c2ccccc2)c(C)c1C (stereo not shown) [Example 108, 4-methoxy-N,2,3,5-tetramethyl-N-(2-(2-(6-(morpholinomethyl)-1-phenyl-3,4-dihydropyrrolo[1,2-a]pyrazin-2(1H)-yl)-2-oxoethoxy)ethyl)benzenesulfonamide]
102 | 101 | COc1c(C)cc(S(=O)(=O)N(C)CCOCC(=O)N2CCn3c(CN(C)C)ccc3C2Cc2ccccc2)c(C)c1C (stereo not shown) [Example 109, N-(2-(2-(1-benzyl-6-((dimethylamino)methyl)-3,4-dihydropyrrolo[1,2-a]pyrazin-2(1H)-yl)-2-oxoethoxy)ethyl)-4-methoxy-N,2,3,5-tetramethylbenzene-sulfonamide]
103 | 100 | COc1c(C)cc(S(=O)(=O)N(C)CCOCC(=O)N2CCn3c(CN(C)C)ccc3C2CCc2ccccc2)c(C)c1C (stereo not shown) [Example 110, N-(2-(2-(6-((dimethylamino)methyl)-1-phenethyl-3,4-dihydropyrrolo[1,2-a]pyrazin-2(1H)-yl)-2-oxoethoxy)ethyl)-4-methoxy-N,2,3,5-tetramethylbenzene-sulfonamide]
101 | 101 | COc1c(C)cc(S(=O)(=O)N(C)CCOCC(=O)N2CCn3c(CN(C)C)ccc3C2c2cccs2)c(C)c1C (stereo not shown) [Example 112, N-(2-(2-(6-((dimethylamino)methyl)-1-(thiophen-2-yl)-3,4-dihydropyrrolo[1,2-a]pyrazin-2(1H)-yl)-2-oxoethoxy)ethyl)-4-methoxy-N,2,3,5-tetramethylbenzene-sulfonamide]
103 | 102 | COc1cc(C)c(S(=O)(=O)N(CCOCC(=O)N2CCn3c(CN4CCCC4)ccc3C2c2ccccc2)Cc2ccccc2)c(C)c1C (stereo not shown) [Example 116, N-benzyl-4-methoxy-2,3,6-trimethyl-N-(2-(2-oxo-2-(1-phenyl-6-(pyrrolidin-1-ylmethyl)-3,4-dihydropyrrolo[1,2-a]pyrazin-2(1H)-yl)ethoxy)ethyl)benzene-sulfonamide]
82 | 88 | COc1cc(C)c(S(=O)(=O)N(CCOCC(=O)N2CCn3c(CN4CCOCC4)ccc3C2c2ccccc2)Cc2ccccc2)c(C)c1C (stereo not shown) [Example 117, N-benzyl-4-methoxy-2,3,6-trimethyl-N-(2-(2-(6-(morpholinomethyl)-1-phenyl-3,4-dihydropyrrolo[1,2-a]pyrazin-2(1H)-yl)-2-oxoethoxy)ethyl)benzene-sulfonamide]
